Columns and labels:
[1] = Hygroscopicity by Dynamic Vapour Sorption Analysis (DVS); type: physicochemical; conditions: for moisture uptake: 25° C.
Protocol: The studies were undertaken using Dynamic Vapour Sorption Apparatus (DVS, Surface Measurement Systems, London UK). The apparatus consists of Cahn micobalance housed inside a temperature-controlled cabinet. All experiments were performed at 25° C. The DVS was used to characterize the moisture uptake (w/w %) at different relative humidities (RH). Samples (5-10 mg) were weighed directly into the DSV sample cup and exposed to different relative humidities.

[2] = Chemical stability of the salt forms; type: physicochemical; conditions: compared with the hydrochloride salt of WO 03/082853
From the text: The term “chemical stability” means that the compound can be stored in an isolated form, or in the form of a formulation in which it is provided in admixture with pharmaceutically acceptable carriers, diluents or adjuvants (e.g., in an oral dosage form, such as tablet, capsule, etc.), under normal storage conditions, with little or no chemical degradation or decomposition.

[3] = 40% relative humidity (RH), citrate
[4] = 60% relative humidity (RH), citrate
[5] = 80% relative humidity (RH), citrate

| moisture uptake [1, 3] | moisture uptake [1, 4] | moisture uptake [1, 5] | hygroscopicity (in words) ([1]; citrate) | Structure (SMILES) | hygroscopicity (in words) ([1]; listed as citrate salt of 2-hydroxy-3-[5-(morpholin-4-ylmethyl)pyridin-2-yl]1H-indole-5-ca) | chemical stability (in words) [2] |
| --- | --- | --- | --- | --- | --- | --- |
| – | – | – | – | N#Cc1ccc2[nH]c(O)c(-c3ccc(CN4CCOCC4)cn3)c2c1.O=C(O)CC(O)(CC(=O)O)C(=O)O [2-hydroxy-3-[5-(morpholin-4-ylmethyl)pyridin-2-yl]1H-indole-5-carbonitrile citrate] | lower hygroscopicity than the hydrochloride salt | improved chemical stability over the hydrochloride salt |
| 3.2 w/w % | 3.6 w/w % | 3.7 w/w % | – | N#Cc1ccc2[nH]c(O)c(-c3ccc(CN4CCOCC4)cn3)c2c1.O=C(O)CC(O)(CC(=O)O)C(=O)O [Citrate Form D, 2-Hydroxy-3-[5-(morpholin-4-ylmethyl)pyridin-2-yl]1H-indole-5-carbonitrile citrate] | – | – |
| 0.45 w/w % | 0.52 w/w % | 0.60 w/w % | very low hygroscopicity | N#Cc1ccc2[nH]c(O)c(-c3ccc(CN4CCOCC4)cn3)c2c1.O=C(O)CC(O)(CC(=O)O)C(=O)O [Citrate Form E, 2-Hydroxy-3-[5-(morpholin-4-ylmethyl)pyridin-2-yl]1H-indole-5-carbonitrile citrate] | – | – |

From US20100267720A1, “Crystalline Forms of 2-Hydroxy-3- [5- (Morpholin- 4- Ylmethyl) Pyridin-2-YL] IH- Indole- 5 -Carbonitrile Citrate” (ASTRAZENECA AB, priority 2007, published 2010)
